Test results reported in patent US9371331B2, “Modulators of methyl modifying enzymes, compositions and uses thereof” (Constellation Pharmaceuticals, Inc., priority 2012, dated 2016).
Structures can show the parent of a compound that is named as a salt. Where two headings read alike, the source gives them in different places.

Legend:
EZH2 (rPRC2) = EZH2 (rPRC2) (Homo sapiens, UniProt Q15910); experiment: EZH2 assay: rPRC2, biotinylated oligonucleosomes, 3H SAM methyl transfer (FlashPlate scintillation); format: biochemical; details: biotinylated oligonucleosome substrate
Y641N EZH2 = Y641N EZH2 (Homo sapiens, UniProt Q15910, Y641N); experiment: Y641N EZH2 assay: as EZH2 assay, with reconstituted H3K27Me2 oligonucleosomes as substrate; format: biochemical
[1] = EZH2 IC50, wild-type EZH2 (rPRC2)
[2] = Y641N EZH2 IC50, Y641N mutant EZH2, H3K27Me2 oligonucleosome substrate
[3] = Y641N mutant EZH2, H3K27Me2 oligonucleosome substrate
[4] = wild-type EZH2 (rPRC2), read-out: EZH2 IC50
[5] = Y641N mutant EZH2, H3K27Me2 oligonucleosome substrate, read-out: Y641N EZH2 IC50

Y641N EZH2, sequence (Q15910 whole entry Y641N): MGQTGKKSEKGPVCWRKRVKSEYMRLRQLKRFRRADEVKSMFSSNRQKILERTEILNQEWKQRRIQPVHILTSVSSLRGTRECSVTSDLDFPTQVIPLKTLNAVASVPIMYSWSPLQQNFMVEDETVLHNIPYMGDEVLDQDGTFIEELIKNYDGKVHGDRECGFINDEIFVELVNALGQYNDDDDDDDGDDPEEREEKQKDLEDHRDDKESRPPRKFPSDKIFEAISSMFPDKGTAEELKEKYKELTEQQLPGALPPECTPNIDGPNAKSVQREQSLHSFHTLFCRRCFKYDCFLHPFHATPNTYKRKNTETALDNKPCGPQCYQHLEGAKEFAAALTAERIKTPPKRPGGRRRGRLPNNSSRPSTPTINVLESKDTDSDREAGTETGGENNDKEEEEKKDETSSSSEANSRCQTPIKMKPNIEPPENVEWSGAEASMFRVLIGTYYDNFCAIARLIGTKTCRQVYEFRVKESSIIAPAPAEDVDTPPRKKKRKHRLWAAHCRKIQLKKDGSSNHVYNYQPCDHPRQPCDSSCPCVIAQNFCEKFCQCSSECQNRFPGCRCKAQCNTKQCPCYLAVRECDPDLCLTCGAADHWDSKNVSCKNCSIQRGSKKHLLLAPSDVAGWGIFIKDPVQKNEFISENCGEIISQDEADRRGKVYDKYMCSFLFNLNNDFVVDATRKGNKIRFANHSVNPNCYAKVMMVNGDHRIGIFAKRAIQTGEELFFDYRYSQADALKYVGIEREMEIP
Y641N EZH2, sequence (O75530 whole entry partner): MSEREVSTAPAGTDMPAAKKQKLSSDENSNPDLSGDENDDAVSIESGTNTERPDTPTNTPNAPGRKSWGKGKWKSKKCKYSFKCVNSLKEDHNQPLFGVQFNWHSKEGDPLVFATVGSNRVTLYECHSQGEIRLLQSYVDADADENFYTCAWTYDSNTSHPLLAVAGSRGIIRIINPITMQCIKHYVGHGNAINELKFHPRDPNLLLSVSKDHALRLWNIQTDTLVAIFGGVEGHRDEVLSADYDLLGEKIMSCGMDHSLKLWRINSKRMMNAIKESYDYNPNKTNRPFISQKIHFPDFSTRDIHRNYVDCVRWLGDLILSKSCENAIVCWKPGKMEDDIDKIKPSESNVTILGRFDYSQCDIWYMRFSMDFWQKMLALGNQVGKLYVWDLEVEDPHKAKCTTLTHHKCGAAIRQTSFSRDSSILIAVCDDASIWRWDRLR
Y641N EZH2, sequence (Q15022 whole entry partner): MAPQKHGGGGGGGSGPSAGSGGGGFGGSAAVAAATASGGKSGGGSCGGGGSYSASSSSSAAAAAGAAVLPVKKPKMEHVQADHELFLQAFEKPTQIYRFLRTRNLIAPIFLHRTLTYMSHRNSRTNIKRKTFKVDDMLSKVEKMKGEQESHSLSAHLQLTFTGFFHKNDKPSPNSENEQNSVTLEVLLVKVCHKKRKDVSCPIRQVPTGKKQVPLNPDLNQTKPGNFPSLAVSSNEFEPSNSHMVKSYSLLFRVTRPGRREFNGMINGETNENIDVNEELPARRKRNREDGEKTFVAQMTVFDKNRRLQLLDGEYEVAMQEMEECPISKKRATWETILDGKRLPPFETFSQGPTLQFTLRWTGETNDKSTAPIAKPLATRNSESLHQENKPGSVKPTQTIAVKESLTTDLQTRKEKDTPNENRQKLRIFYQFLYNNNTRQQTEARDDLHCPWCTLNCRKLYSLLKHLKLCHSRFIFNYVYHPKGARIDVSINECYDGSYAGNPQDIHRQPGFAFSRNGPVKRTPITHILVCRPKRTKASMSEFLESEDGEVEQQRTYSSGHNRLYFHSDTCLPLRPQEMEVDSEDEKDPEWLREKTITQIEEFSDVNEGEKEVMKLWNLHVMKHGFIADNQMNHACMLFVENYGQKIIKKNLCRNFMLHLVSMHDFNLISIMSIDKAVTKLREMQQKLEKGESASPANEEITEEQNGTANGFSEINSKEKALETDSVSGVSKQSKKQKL
EZH2 (rPRC2), sequence (Q15910 whole entry): as the sequence (Q15910 whole entry Y641N) above, with N641Y counted along it
EZH2 (rPRC2), sequence (O75530 whole entry partner): as the sequence (O75530 whole entry partner) above
EZH2 (rPRC2), sequence (Q15022 whole entry partner): as the sequence (Q15022 whole entry partner) above

| Structure (SMILES) | IC50 (EZH2 (rPRC2); [1]) [µM] | IC50 (Y641N EZH2; [2]) [µM] | IC50 (EZH2 (rPRC2); [4]) [µM] | IC50 (Y641N EZH2; [5]) [µM] | also measured |
| --- | --- | --- | --- | --- | --- |
| CCOc1cc(C)[nH]c(=O)c1CNC(=O)c1c(C)n(C(C)c2ccccc2)c2cnccc12 (racemic) [Compound 255, (±)-N-((4-ethoxy-6-methyl-2-oxo-1,2-dihydropyridin-3-yl)methyl)-2-methyl-1-(1-phenylethyl)-1H-pyrrolo[2,3-c]pyridine-3-carboxamide] | < 0.1 | 1 to 10 |  |  |  |
| Cc1cc(C)c(CNC(=O)c2cnn(Cc3ccccc3)c2C)c(O)n1 [Compound 109, 1-benzyl-N-((2-hydroxy-4,6-dimethylpyridin-3-yl)methyl)-5-methyl-1H-pyrazole-4-carboxamide] |  |  |  |  | EZH2 IC50 (EZH2 (rPRC2); wild-type EZH2 (rPRC2)): *(10 μM); Y641N EZH2 IC50 (Y641N EZH2; [3]): *(10 μM) |
| COc1cc(C)[nH]c(=O)c1CNC(=O)c1c(C)n(C(C)C(OC)C(F)(F)F)c2ncccc12 (stereo not drawn) [Compound 312, N-((4-methoxy-6-methyl-2-oxo-1,2-dihydropyridin-3-yl)methyl)-2-methyl-1-(4,4,4-trifluoro-3-methoxybutan-2-yl)-1H-pyrrolo [2,3-b] pyridine-3-carboxamide] | 0.1 to 1 | 0.1 to 1 |  |  |  |
| CC[C@@H](C)n1c(C)c(C(=O)NCc2c(C)cc(C)nc2O)c2cnc(-c3ccccc3)nc21 [Compound 188, (R)-7-(sec-butyl)-N-((2-hydroxy-4,6-dimethylpyridin-3-yl)methyl)-6-methyl-2-phenyl-7H-pyrrolo [2,3-d]pyrimidine-5-carboxamide] |  |  | 0.1 to 1 | 1 to 10 |  |
| Cc1cc(C)c(CNC(=O)c2c(C)n([C@H](C)c3ccccc3)c3nc(Cl)ncc23)c(O)n1 [Compound 167] | 0.1 to 1 | 0.1 to 1 |  |  |  |
| Cc1cc(C)c(CNC(=O)c2cn(S(=O)(=O)c3ccccc3)c3ccccc23)c(=O)[nH]1 [Compound 135, N-((4,6-dimethyl-2-oxo-1,2-dihydropyridin-3-yl)methyl)-1-(phenylsulfonyl)-1H-indole-3-carboxamide] |  |  | 1 to 10 | > 10 |  |
| COc1cc(C)[nH]c(=O)c1CNC(=O)c1c(C)n(C(=O)C2CCOCC2)c2ccccc12 [Compound 372, N-((4-methoxy-6-methyl-2-oxo-1,2-dihydropyridin-3-yl)methyl)-2-methyl-1-(tetrahydro-2H-pyran-4-carbonyl)-1H-indole-3-carboxamide] |  |  | 0.1 to 1 |  | Y641N EZH2 IC50 (Y641N EZH2; [3]): *(0.5 uM) |
| Cc1cc(C)c(CNC(=O)c2c(C)n(C(C)c3ccccc3)c3cccnc23)c(O)n1 (racemic) [Compound 126, N-((2-hydroxy-4,6-dimethylpyridin-3-yl)methyl)-2-methyl-1-(1-phenylethyl)-1H-pyrrolo[3,2-b]pyridine-3-carboxamide] | 0.1 to 1 | 1 to 10 |  |  |  |
| Cc1cc(C)c(CNC(=O)c2c(-c3ccccc3)n(C(C)c3ccccc3)c3ccccc23)c(O)n1 (single isomer, unassigned) [Compound 445, (R or S)-N-((2-hydroxy-4,6-dimethylpyridin-3-yl)methyl)-2-phenyl-1-(1-phenylethyl)-1H-indole-3-carboxamide] |  |  |  |  | EZH2 IC50 (EZH2 (rPRC2); wild-type EZH2 (rPRC2)): *(10 uM); Y641N EZH2 IC50 (Y641N EZH2; [3]): *(10 uM) |
| Cc1cc(C)c(CNC(=O)c2c(C)n(C(C)C3CCN(C4CNC4)CC3)c3ccccc23)c(=O)[nH]1 (single isomer, unassigned) [Compound 376, (R or S)-1-(1-(1-(azetidin-3-yl)piperidin-4-yl)ethyl)-N-((4,6-dimethyl-2-oxo-1,2-dihydropyridin-3-yl)methyl)-2-methyl-1 H-indole-3-carboxamide hydrochloride] | < 0.1 | < 0.1 |  |  |  |
| Cc1cc(C)c(CNC(=O)c2c(C)n(C3CCOCC3)c3ncccc23)c(=O)[nH]1 [Compound 244, N-((4,6-dimethyl-2-oxo-1,2-dihydropyridin-3-yl)methyl)-2-methyl-1-(tetrahydro-2H-pyran-4-yl)-1H-pyrrolo[2,3-b]pyridine-3-carboxamide] | 0.1 to 1 | 1 to 10 |  |  |  |
| COc1cc(C)[nH]c(=O)c1CNC(=O)c1c(C)n([C@@H](C)c2ccccc2)c2ncccc12 [Compound 276, (S)-N-((4-methoxy-6-methyl-2-oxo-1,2-dihydropyridin-3-yl)methyl)-2-methyl-1-(1-phenylethyl)-1H-pyrrolo[2,3-b]pyridine-3-carboxamide] | < 0.1 | < 0.1 |  |  |  |
| Cc1cc(C)c(CNC(=O)c2c(C)n(C(=O)c3ccccc3)c3ccccc23)c(O)n1 [Compound 150, 1-benzoyl-N-((2-hydroxy-4,6-dimethylpyridin-3-yl)methyl)-2-methyl-1H-indole-3-carboxamide] |  |  | 0.1 to 1 | 0.1 to 1 |  |
| Cc1cc(C)c(CNC(=O)c2cnn(-c3ccccc3)c2C)c(=O)[nH]1 [Compound 100, N-((4,6-dimethyl-2-oxo-1,2-dihydropyridin-3-yl)methyl)-5-methyl-1-phenyl-1H-pyrazole-4-carboxamide] |  |  | 1 to 10 | > 10 |  |
| COCC(C)n1c(C)c(C(=O)NCc2c(OC)cc(C)[nH]c2=O)c2ccccc21 (single isomer, unassigned) [Compound 223, N-((4-methoxy-6-methyl-2-oxo-1,2-dihydropyridin-3-yl)methyl)-1-(1-methoxypropan-2-yl)-2-methyl-1H-indole-3-carboxamide] | < 0.1 | 0.1 to 1 |  |  |  |
| CNC(=O)c1cccc(C(C)n2c(C)c(C(=O)NCc3c(OC)cc(C)[nH]c3=O)c3cccnc32)c1 (stereo not drawn) [Compound 263, N-((4-methoxy-6-methyl-2-oxo-1,2-dihydropyridin-3-yl)methyl)-2-methyl-1-(1-(3-(methylcarbamoyl)phenyl)ethyl)-1H-pyrrolo[2,3-b]pyridine-3-carboxamide] |  |  | < 0.1 | 0.1 to 1 |  |
| Cc1cc(C)c(CNC(=O)c2c(C)n(-c3ccccc3)c3ccccc23)c(O)n1 [Compound 133, N-((2-hydroxy-4,6-dimethylpyridin-3-yl)methyl)-2-methyl-1-phenyl-1H-indole-3-carboxamide] |  |  | < 0.1 | 0.1 to 1 |  |
| COC[C@H](C)n1c(C)c(C(=O)NCc2c(OC)cc(C)[nH]c2=O)c2cncnc21 [Compound 287, (S)-N-((4-methoxy-6-methyl-2-oxo-1,2-dihydropyridin-3-yl)methyl)-7-(1-methoxypropan-2-yl)-6-methyl-7H-pyrrolo[2,3-d]pyrimidine-5-carboxamide] | 0.1 to 1 | 1 to 10 |  |  |  |
| Cc1cc(C)c(CNC(=O)c2c(C)n([C@H](C)c3ccccc3)c3nc(C)ncc23)c(O)n1 [Compound 176, (R)-N-((2-hydroxy-4,6-dimethylpyridin-3-yl)methyl)-2,6-dimethyl-7-(1-phenylethyl)-7H-pyrrolo[2,3-d]pyrimidine-5-carboxamide] | < 0.1 | 0.1 to 1 |  |  |  |
| COc1cc(C)[nH]c(=O)c1CNC(=O)c1c(C)n(C(C)CC(N)=O)c2ncccc12 (stereo not drawn) [Compound 296, 1-(4-amino-4-oxobutan-2-yl)-N-((4-methoxy-6-methyl-2-oxo-1,2-dihydropyridin-3-yl)methyl)-2-methyl-1H-pyrrolo[2,3-b]pyridine-3-carboxamide] |  |  | 0.1 to 1 | 1 to 10 |  |
| COc1cc(C)[nH]c(=O)c1CNC(=O)c1c(C)n(C(C)C(C)OC)c2ncccc12 (single isomer, unassigned) [Compound 267, N-((4-methoxy-6-methyl-2-oxo-1,2-dihydropyridin-3-yl)methyl)-1-((2R or 2S, 3R or 3S)-3-methoxybutan-2-yl)-2-methyl-1H-pyrrolo[2,3-b]pyridine-3-carboxamide] |  |  | < 0.1 | 0.1 to 1 |  |
| COc1cc(C)[nH]c(=O)c1CNC(=O)c1c(C)n([C@H](C)[C@H](OC)C2CC2)c2ncccc12 (single isomer, unassigned) [Compound 285, 1-((1R or S, 2R or S)-1-cyclopropyl-1-methoxypropan-2-yl)-N-((4-methoxy-6-methyl-2-oxo-1,2-dihydropyridin-3-yl)methyl)-2-methyl-1H-pyrrolo[2,3-b]pyridine-3-carboxamide] | 0.1 to 1 | 1 to 10 |  |  |  |
| COc1cc(C)[nH]c(=O)c1CNC(=O)c1c(C)n(C(C)CS(C)(=O)=O)c2ccccc12 (single isomer, unassigned) [Compound 278, (R or S)-N-((4-methoxy-6-methyl-2-oxo-1,2-dihydropyridin-3-yl)methyl)-2-methyl-1-(1-(methylsulfonyl)propan-2-yl)-1H-indole-3-carboxamide] | 0.1 to 1 | 1 to 10 |  |  |  |
| CC[C@@H](C)n1c(C)c(C(=O)NCc2c(C)cc(C)[nH]c2=O)c2cnc(CO)nc21 [Compound 199, (R)-7-(sec-butyl)-N-((4,6-dimethyl-2-oxo-1,2-dihydropyridin-3-yl)methyl)-2-(hydroxymethyl)-6-methyl-7H-pyrrolo[2,3-d]pyrimidine-5-carboxamide] |  |  | 0.1 to 1 | 1 to 10 |  |
| Cc1cc(C)c(CNC(=O)c2c(C)n(C(C)c3ccc(S(C)(=O)=O)cc3)c3ccccc23)c(=O)[nH]1 (racemic) [Compound 179, (±)-N-((4,6-dimethyl-2-oxo-1,2-dihydropyridin-3-yl)methyl)-2-methyl-1-(1-(4-(methylsulfonyl)phenyl)ethyl)-1H-indole-3-carboxamide] | < 0.1 | 0.1 to 1 |  |  |  |
| Cc1cc(C)c(CNC(=O)c2c(C)n(C(C)c3ccccc3C)c3ccccc23)c(=O)[nH]1 (racemic) [Compound 174, (±)-N-((4,6-dimethyl-2-oxo-1,2-dihydropyridin-3-yl)methyl)-2-methyl-1-(1-(o-tolyl)ethyl)-1H-indole-3-carboxamide] | 0.1 to 1 | 1 to 10 |  |  |  |
| Cc1cc(C)c(CNC(=O)c2c(C)n([C@H](C)c3ccccc3)c3nc(N4CCCC4)ncc23)c(O)n1 [Compound 142, (R)—N-((2-hydroxy-4,6-dimethylpyridin-3-yl)methyl)-6-methyl-7-(1-phenylethyl)-2-(pyrrolidin-1-yl)-7H-pyrrolo[2,3-d]pyrimidine-5-carboxamide] | 0.1 to 1 | 1 to 10 |  |  |  |
